Data from EP0454060B1, “3-(Mercaptoalkyl)-quinazoline-2,4(1H,3H)-diones, processes for their preparation, and pharmaceutical compositions” (priority 1990, dated 1991).
Like-named read-outs stand apart in the source and are kept apart here.

What was measured:
[1] = system: Herpes simplex Typ 1 Kupka; test: One-step replication cycle on permanent human kidney cell line
Influenza A/WSN = test: One-step replication cycle on chick embryo cells; type: cell-based, Influenza-Virus; settings: for % Hemmung / Senkung des Virusertrages im Vergleich zur unbehandelten Kontrolle: Influenza A/WSN
Herpes simplex Typ 1 = test: One-step replication cycle on chick embryo cells; type: cell-based; settings: Beispielreihe 2, HEZ
Vaccinia Lister [2] = test: One-step replication cycle on permanent human kidney cell line
[3] = system: Human-Fibroblasten (2 Tage alt); test: Cell tolerance, microscopic reading; type: cell-based; parameters: key: 0̸: Am 5. Tag der mikroskopischen Ablesung keine morphologischen Veränderungen der Zellen.; ++++: Komplette Veränderungen der Zellschicht in Form von Abrundung, Granulierung und Ablösen der Zellen von der Glaswand.; +++: Analoge Veränderungen bei 3/4 des Zellrasens.; ++: Analoge Veränderungen bei 1/2 des Zellrasens.; +: Analoge Veränderungen bei 1/4 des Zellrasens; settings: HFi, reading day 5
Text: (§1) 0̸ = Am 5. Tag der mikroskopischen Ablesung keine morphologischen Veränderungen der Zellen. ++++ = Komplette Veränderungen der Zellschicht in Form von Abrundung, Granulierung und Ablösen der Zellen von der Glaswand. +++ = Analoge Veränderungen bei 3/4 des Zellrasens. ++ = Analoge Veränderungen bei 1/2 des Zellrasens. + = Analoge Veränderungen bei 1/4 des Zellrasens.

[4] = system: RH (humane Nierenzellen-Permanentzellinie); test: Cell tolerance, microscopic reading; type: cell-based; parameters: key: 0̸: Am 5. Tag der mikroskopischen Ablesung keine morphologischen Veränderungen der Zellen.; ++++: Komplette Veränderungen der Zellschicht in Form von Abrundung, Granulierung und Ablösen der Zellen von der Glaswand.; +++: Analoge Veränderungen bei 3/4 des Zellrasens.; ++: Analoge Veränderungen bei 1/2 des Zellrasens.; +: Analoge Veränderungen bei 1/4 des Zellrasens; settings: reading day 5
Text: as §1

[5] = system: MDBK (bovine Nierenzellen-Permanentzellinie); test: Cell tolerance, microscopic reading; type: cell-based; parameters: key: 0̸: Am 5. Tag der mikroskopischen Ablesung keine morphologischen Veränderungen der Zellen.; ++++: Komplette Veränderungen der Zellschicht in Form von Abrundung, Granulierung und Ablösen der Zellen von der Glaswand.; +++: Analoge Veränderungen bei 3/4 des Zellrasens.; ++: Analoge Veränderungen bei 1/2 des Zellrasens.; +: Analoge Veränderungen bei 1/4 des Zellrasens; settings: MDKB, reading day 5
Text: as §1

Vaccinia Lister [6] = type: cell-based, Vaccinia-Virus; settings: for % Hemmung / Senkung des Virusertrages im Vergleich zur unbehandelten Kontrolle: Vaccinia Lister
[7] = Beispielreihe 3, Herpes simplex Typ 1 Kupka, 125 µmol/l, mean of two experiments
[8] = Beispielreihe 3, Herpes simplex Typ 1 Kupka, 250 µmol/l, mean of two experiments
[9] = Beispielreihe 2, HEZ, 125 µmol/l, mean of three experiments
[10] = Beispielreihe 2, HEZ, 250 µmol/l, mean of three experiments
[11] = Beispielreihe 2, HEZ, 31,25 µmol/l, mean of three experiments
[12] = Beispielreihe 2, HEZ, 31,25 µmol/l, mean of three experiments, 31.25 µM
[13] = Beispielreihe 2, HEZ, 62,5 µmol/l, mean of three experiments
[14] = Beispielreihe 2, HEZ, 62,5 µmol/l, mean of three experiments, 62.5 µM
[15] = 250 µmol/l, mean of three experiments
[16] = Beispielreihe 3, 125 µmol/l, mean of two experiments
[17] = Beispielreihe 3, 250 µmol/l, mean of two experiments
[18] = 125 µmol/l in maintenance medium
[19] = 250 µmol/l in maintenance medium
[20] = 500 µmol/l in maintenance medium
[21] = 1000 µmol/l in maintenance medium
[22] = 62,5 µmol/l in maintenance medium
[23] = Beispielreihe 5a, Herpes simplex Typ 1, 125 µmol/l
[24] = Beispielreihe 5a, Herpes simplex Typ 1, 250 µmol/l
[25] = Beispielreihe 5b, Hühnerembryonalfibroblasten, 125 µmol/l
[26] = Beispielreihe 5b, Hühnerembryonalfibroblasten, 250 µmol/l
[27] = Beispielreihe 5b, Hühnerembryonalfibroblasten, 62,5 µmol/l
[28] = Beispielreihe 5b, Hühnerembryonalfibroblasten, 62,5 µmol/l, 62.5 µM

O=c1[nH]c2ccccc2c(=O)n1CCS [Beispiel 1, 3-(2-Mercaptoethyl)-chinazolin-2,4(1H,3H)-dion]
% Hemmung [1, 7]: > 99,99%
Senkung des Virusertrages im Vergleich zur unbehandelten Kontrolle [1, 7]: 5,5 log10 TCID50/0,2 ml
% Hemmung [1, 8]: > 99,99%
Senkung des Virusertrages im Vergleich zur unbehandelten Kontrolle [1, 8]: 6,0 log10 TCID50/0,2 ml
Senkung des Virusertrages im Vergleich zur unbehandelten Kontrolle ([1]; Beispielreihe 3, Herpes simplex Typ 1 Kupka, 62,5 µmol/l, mean of two experiments): 0,75 log10 TCID50/0,2 ml
% Hemmung ([1]; Beispielreihe 3, Herpes simplex Typ 1 Kupka, 62,5 µmol/l, n. s. = nicht signifikant): n. s.
% Hemmung (Influenza A/WSN; [9]): > 99,99%
Senkung des Virusertrages im Vergleich zur unbehandelten Kontrolle (Influenza A/WSN; [9]): 4,67 log10 TCID50/0,2 ml
% Hemmung (Influenza A/WSN; [10]): > 99,99%
Senkung des Virusertrages im Vergleich zur unbehandelten Kontrolle (Influenza A/WSN; [10]): 6,23 log10 TCID50/0,2 ml
Senkung des Virusertrages im Vergleich zur unbehandelten Kontrolle (Influenza A/WSN; [11]): 2,5 log10 TCID50/0,2 ml
% Hemmung (Influenza A/WSN; [12]): 99,50%
Senkung des Virusertrages im Vergleich zur unbehandelten Kontrolle (Influenza A/WSN; [13]): 4,25 log10 TCID50/0,2 ml
% Hemmung (Influenza A/WSN; [14]): > 99,99%
Therapeutischer Index = Verhältnis von maximal verträglicher und minimal wirksamer Dosis (Influenza A/WSN; für Influenza-Virus, HEZ): 8
Senkung des Virusertrages im Vergleich zur unbehandelten Kontrolle (Herpes simplex Typ 1; 125 µmol/l, mean of three experiments): 0,33 log10 TCID50/0,2 ml
% Hemmung (Herpes simplex Typ 1; 125 µmol/l, n.s. = nicht signifikant): n. s.
% Hemmung (Herpes simplex Typ 1; [15]): 99%
Senkung des Virusertrages im Vergleich zur unbehandelten Kontrolle (Herpes simplex Typ 1; [15]): 1,0 log10 TCID50/0,2 ml
% Hemmung (Vaccinia Lister [2]; [16]): > 99,99%
Senkung des Virusertrages im Vergleich zur unbehandelten Kontrolle (Vaccinia Lister [2]; [16]): > 4,0 log10 TCID50/0,2 ml
% Hemmung (Vaccinia Lister [2]; [17]): > 99,99%
Senkung des Virusertrages im Vergleich zur unbehandelten Kontrolle (Vaccinia Lister [2]; [17]): > 4,0 log10 TCID50/0,2 ml
Senkung des Virusertrages im Vergleich zur unbehandelten Kontrolle (Vaccinia Lister [2]; Beispielreihe 3, 31,25 µmol/l, mean of two experiments): 3,5 log10 TCID50/0,2 ml
% Hemmung (Vaccinia Lister [2]; Beispielreihe 3, 31,25 µmol/l, mean of two experiments, 31.25 µM): > 99,9%
Senkung des Virusertrages im Vergleich zur unbehandelten Kontrolle (Vaccinia Lister [2]; Beispielreihe 3, 62,5 µmol/l, mean of two experiments): 4,0 log10 TCID50/0,2 ml
% Hemmung (Vaccinia Lister [2]; Beispielreihe 3, 62,5 µmol/l, mean of two experiments, 62.5 µM): 99,99%
Zellverträglichkeit [3, 18]: 0̸
Zellverträglichkeit [3, 19]: 0̸
Zellverträglichkeit [3, 20]: 0̸
Zellverträglichkeit [3, 21]: ++
Zellverträglichkeit [3, 22]: 0̸
Zellverträglichkeit [4, 18]: 0̸
Zellverträglichkeit [4, 19]: 0̸
Zellverträglichkeit [4, 20]: ++
Zellverträglichkeit [4, 21]: +++
Zellverträglichkeit [4, 22]: 0̸
Zellverträglichkeit [5, 18]: 0̸
Zellverträglichkeit [5, 19]: 0̸
Zellverträglichkeit [5, 20]: ++
Zellverträglichkeit [5, 21]: ++++
Zellverträglichkeit [5, 22]: 0̸
% Hemmung (Vaccinia Lister [6]; [9]): 99,99%
Senkung des Virusertrages im Vergleich zur unbehandelten Kontrolle (Vaccinia Lister [6]; [9]): 4,0 log10 TCID50/0,2 ml
% Hemmung (Vaccinia Lister [6]; [10]): > 99,99%
Senkung des Virusertrages im Vergleich zur unbehandelten Kontrolle (Vaccinia Lister [6]; [10]): 5,67 log10 TCID50/0,2 ml
Senkung des Virusertrages im Vergleich zur unbehandelten Kontrolle (Vaccinia Lister [6]; [11]): 1,0 log10 TCID50/0,2 ml
% Hemmung (Vaccinia Lister [6]; [12]): 99,0%
Senkung des Virusertrages im Vergleich zur unbehandelten Kontrolle (Vaccinia Lister [6]; [13]): 2,5 log10 TCID50/0,2 ml
% Hemmung (Vaccinia Lister [6]; [14]): 99,68%
Therapeutischer Index = Verhältnis von maximal verträglicher und minimal wirksamer Dosis (Vaccinia Lister [6]; für Vaccinia-Virus, HEZ): 8

COc1cc2[nH]c(=O)n(CCCS)c(=O)c2cc1OC [Beispiel 2, 3-(3-Mercaptoprop-1-yl)-6,7-dimethoxychinazolin-2,4(1H,3H)-dion]
% Hemmung [1, 23]: > 99,99%
Senkung des Virusertrages im Vergleich zur unbehandelten Kontrolle [1, 23]: 6,5 log10 TCID50/0,2 ml
% Hemmung [1, 24]: > 99,99%
Senkung des Virusertrages im Vergleich zur unbehandelten Kontrolle [1, 24]: 6,5 log10 TCID50/0,2 ml
Senkung des Virusertrages im Vergleich zur unbehandelten Kontrolle ([1]; Beispielreihe 5a, Herpes simplex Typ 1, 31,25 µmol/l): 3,67 log10 TCID50/0,2 ml
% Hemmung ([1]; Beispielreihe 5a, Herpes simplex Typ 1, 31,25 µmol/l, 31.25 µM): 99,97%
Senkung des Virusertrages im Vergleich zur unbehandelten Kontrolle ([1]; Beispielreihe 5a, Herpes simplex Typ 1, 62,5 µmol/l): 5,0 log10 TCID50/0,2 ml
% Hemmung ([1]; Beispielreihe 5a, Herpes simplex Typ 1, 62,5 µmol/l, 62.5 µM): > 99,99%
% Hemmung (Influenza A/WSN; [25]): > 99,99%
Senkung des Virusertrages im Vergleich zur unbehandelten Kontrolle (Influenza A/WSN; [25]): 5,0 log10 TCID50/02 ml
% Hemmung (Influenza A/WSN; [26]): > 99,99%
Senkung des Virusertrages im Vergleich zur unbehandelten Kontrolle (Influenza A/WSN; [26]): 5,0 log10 TCID50/02 ml
Senkung des Virusertrages im Vergleich zur unbehandelten Kontrolle (Influenza A/WSN; [27]): 2,0 log10 TCID50/02 ml
% Hemmung (Influenza A/WSN; [28]): 99,0%
% Hemmung (Vaccinia Lister [2]; Beispielreihe 5a, 125 µmol/l): > 99,99%
Senkung des Virusertrages im Vergleich zur unbehandelten Kontrolle (Vaccinia Lister [2]; Beispielreihe 5a, 125 µmol/l): 5,0 log10 TCID50/0,2 ml
% Hemmung (Vaccinia Lister [2]; Beispielreihe 5a, 250 µmol/l): > 99,99%
Senkung des Virusertrages im Vergleich zur unbehandelten Kontrolle (Vaccinia Lister [2]; Beispielreihe 5a, 250 µmol/l): 5,0 log10 TCID50/0,2 ml
Senkung des Virusertrages im Vergleich zur unbehandelten Kontrolle (Vaccinia Lister [2]; Beispielreihe 5a, 31,25 µmol/l): 2,84 log10 TCID50/0,2 ml
% Hemmung (Vaccinia Lister [2]; Beispielreihe 5a, 31,25 µmol/l, 31.25 µM): 99,84%
Senkung des Virusertrages im Vergleich zur unbehandelten Kontrolle (Vaccinia Lister [2]; Beispielreihe 5a, 62,5 µmol/l): 5,0 log10 TCID50/0,2 ml
% Hemmung (Vaccinia Lister [2]; Beispielreihe 5a, 62,5 µmol/l, 62.5 µM): > 99,99%
% Hemmung (Vaccinia Lister [6]; [25]): > 99,99%
Senkung des Virusertrages im Vergleich zur unbehandelten Kontrolle (Vaccinia Lister [6]; [25]): 5,0 log10 TCID50/02 ml
% Hemmung (Vaccinia Lister [6]; [26]): > 99,99%
Senkung des Virusertrages im Vergleich zur unbehandelten Kontrolle (Vaccinia Lister [6]; [26]): 5,0 log10 TCID50/02 ml
Senkung des Virusertrages im Vergleich zur unbehandelten Kontrolle (Vaccinia Lister [6]; Beispielreihe 5b, Hühnerembryonalfibroblasten, 31,25 µmol/l): 3,0 log10 TCID50/02 ml
% Hemmung (Vaccinia Lister [6]; Beispielreihe 5b, Hühnerembryonalfibroblasten, 31,25 µmol/l, 31.25 µM): 99,9%
Senkung des Virusertrages im Vergleich zur unbehandelten Kontrolle (Vaccinia Lister [6]; [27]): 3,5 log10 TCID50/02 ml
% Hemmung (Vaccinia Lister [6]; [28]): 99,93%
